Source: patent US9074014B2 (Ipsen Pharma S.A.S., priority 2008, dated 2015)
Where a SMILES comes first, the peptide text is derived from it. [ ]: non-standard residue; d: D form. Nle = CCCC[C@H](N)C(=O)O; Aib = CC(C)(N)C(=O)O

Legend:
[1] = Human plasma half-life assay; assay type: in vitro ADME; settings: human plasma, 37° C., LC-MS; for half-life at 0.1 mg/ml: read-out: Human Plasma T½ (converted)
Experimental: (§1) B. Human and Rat Plasma Half-Life Assay
(§2) 50 μL was removed at various times, like at 0, 1, 2, 3, 4, 8, 24, 32, 48, 56, 72 hours, mixed with 5 μL formic acid and 150 μL acetonitrile in a microcentrifuge tube, vertexed, and centrifuged for 10 minutes at 10K rpm. The supernatant was transferred to an injection vial and analyzed by LC-MS. The LC-MS system consisted of an API4000 mass spectrometer with an ESI probe. Positive ion mode and full scan detection were used. HPLC separation was carried out on a Luna 3μ C8 (2), 2×30 mm column with a gradient from 90% A to 90% B in 10 minutes at a flow rate of 0.3 ml/min. Buffer A was 1% formic acid in water and buffer B was 1% formic acid acetonitrile.

[2] = Rat plasma half-life assay; assay type: in vitro ADME; settings: rat plasma, 37° C., LC-MS; for half-life at 0.1 mg/ml: read-out: Rat Plasma T½ (converted)
Experimental: as §1, §2

SMILES	half-life at 0.1 mg/ml [1] [h]	half-life at 0.1 mg/ml [2] [h]	Human Plasma T½ [1] [h]	Rat Plasma T½ [2] [h]
CC[C@H](C)[C@H](NC(=O)[C@H](CCCCN)NC(=O)[C@H](CC(=O)O)NC(=O)[C@H](CCSC)NC(=O)C(C)(C)NC(=O)[C@@H](NC(=O)[C@H](CO)NC(=O)[C@H](Cc1ccc(O)cc1)NC(=O)[C@H](CC(=O)O)NC(=O)[C@H](CO)NC(=O)[C@@H](NC(=O)[C@H](Cc1ccccc1)NC(=O)[C@@H](NC(=O)CNC(=O)[C@H](CCC(=O)O)NC(=O)C(C)(C)NC(=O)[C@@H](N)Cc1ccc(O)cc1)[C@@H](C)O)[C@@H](C)CC)[C@@H](C)CC)C(=O)N[C@@H](Cc1c[nH]cn1)C(=O)N[C@@H](CCC(N)=O)C(=O)N[C@@H](CCC(N)=O)C(=O)N[C@@H](CC(=O)O)C(=O)N[C@@H](Cc1ccccc1)C(=O)N[C@H](C(=O)N[C@@H](CC(N)=O)C(=O)N[C@@H](Cc1c[nH]c2ccccc12)C(=O)N[C@@H](CC(C)C)C(=O)N[C@@H](CC(C)C)C(=O)N[C@@H](C)C(=O)N[C@@H](CCC(N)=O)C(=O)N[C@@H](CCCCN)C(N)=O)C(C)C [Example 47, (Aib^2, 13)hGIP(1-30)-NH2] (H-Y[Aib]EGTFISDYSI[Aib]MDKIHQQDFVNWLLAQK-NH2; N-terminus assumed)	45.3	30.8		
CC[C@H](C)[C@H](NC(=O)[C@H](CCCCN)NC(=O)[C@H](CC(=O)O)NC(=O)C1(NC(=O)[C@H](C)NC(=O)[C@@H](NC(=O)C2(NC(=O)[C@H](Cc3ccc(O)cc3)NC(=O)[C@H](CC(=O)O)NC(=O)[C@H](CO)NC(=O)[C@@H](NC(=O)[C@H](Cc3ccccc3)NC(=O)[C@@H](NC(=O)CNC(=O)[C@H](CCC(=O)O)NC(=O)C(C)(C)NC(=O)[C@@H](N)Cc3ccc(O)cc3)[C@@H](C)O)[C@@H](C)CC)CCCC2)[C@@H](C)CC)CCCCC1)C(=O)N[C@@H](Cc1c[nH]cn1)C(=O)N[C@@H](CCC(N)=O)C(=O)N[C@@H](CCC(N)=O)C(=O)N[C@@H](CC(=O)O)C(=O)N[C@@H](Cc1ccccc1)C(=O)N[C@H](C(=O)N[C@@H](CC(N)=O)C(=O)N[C@@H](Cc1c[nH]c2ccccc12)C(=O)N[C@@H](CC(C)C)C(=O)N[C@@H](CC(C)C)C(=O)N[C@@H](C)C(=O)N[C@@H](CCC(N)=O)C(=O)N[C@@H](CCCCN)C(N)=O)C(C)C [Example 48, (Aib^2, A5c^11, A6c^14)hGIP(1-30)-NH2]	> 56	> 54		
CCCC[C@H](NC(=O)C(C)(C)NC(=O)[C@@H](NC(=O)[C@H](CO)NC(=O)[C@H](Cc1ccc(O)cc1)NC(=O)[C@H](CC(=O)O)NC(=O)[C@H](CO)NC(=O)[C@@H](NC(=O)[C@H](Cc1ccccc1)NC(=O)[C@@H](NC(=O)CNC(=O)[C@H](CCC(=O)O)NC(=O)C(C)(C)NC(=O)[C@@H](N)Cc1ccc(O)cc1)[C@@H](C)O)[C@@H](C)CC)[C@@H](C)CC)C(=O)N[C@@H](CC(=O)O)C(=O)N[C@@H](CCCCN)C(=O)N[C@H](C(=O)N[C@@H](Cc1c[nH]cn1)C(=O)N[C@@H](CCC(N)=O)C(=O)N[C@@H](CCC(N)=O)C(=O)N[C@@H](CC(=O)O)C(=O)N[C@@H](Cc1ccccc1)C(=O)N[C@H](C(=O)N[C@@H](CC(N)=O)C(=O)N[C@@H](Cc1c[nH]c2ccccc12)C(=O)N[C@@H](CC(C)C)C(=O)N[C@@H](CC(C)C)C(=O)N[C@@H](C)C(=O)N[C@@H](CCC(N)=O)C(=O)N[C@@H](CCCCN)C(N)=O)C(C)C)[C@@H](C)CC [Example 49, (Aib^2, 13, Nle^14)hGIP(1-30)-NH2] (H-Y[Aib]EGTFISDYSI[Aib][Nle]DKIHQQDFVNWLLAQK-NH2; N-terminus assumed)			>56	45.0
